Results reported in ChEMBL document CHEMBL1275354, “Anticonvulsant activity of 2,4(1H)-diarylimidazoles in mice and rats acute seizure models” (Bioorg Med Chem, 2010).
Active and inactive are the calls of the source. The rule behind the calls is not given here.

What was measured:
Mus musculus [1] = assay: Anticonvulsant activity in albino CF1 mouse assessed as protection against subcutaneous metrazole-induced seizures at 300 mg/kg, ip after 4 hrs; type: functional, organism-based; design: dose 300 mg/kg
Mus musculus [2] = assay: Neurotoxicity in albino CF1 mouse assessed as minimal motor impairment at 300 mg/kg, ip after 4 hrs by rotarod test; type: toxicity, organism-based; design: dose 300 mg/kg, route intraperitoneal; settings: in vivo
Mus musculus [3] = assay: Neurotoxicity in albino CF1 mouse assessed as minimal motor impairment at 30 mg/kg, ip after 0.5 hrs by rotarod test; type: toxicity, organism-based; design: dose 30 mg/kg, route intraperitoneal; settings: in vivo
Mus musculus [4] = assay: Anticonvulsant activity in albino CF1 mouse assessed as protection against subcutaneous metrazole-induced seizures at 100 mg/kg, ip after 0.5 hrs; type: functional, organism-based; design: dose 100 mg/kg
Mus musculus [5] = assay: Anticonvulsant activity in albino CF1 mouse assessed as protection against maximal electroshock-induced seizures at 30 mg/kg, ip after 4 hrs; type: functional, organism-based; design: dose 30 mg/kg
Mus musculus [6] = assay: Anticonvulsant activity in albino CF1 mouse assessed as protection against subcutaneous metrazole-induced seizures at 100 mg/kg, ip after 4 hrs; type: functional, organism-based; design: dose 100 mg/kg
Mus musculus [7] = assay: Neurotoxicity in ip dosed albino CF1 mouse assessed as minimum dose required to cause toxicity after 4 hrs by rotarod test; type: organism-based; settings: in vivo
Mus musculus [8] = assay: Neurotoxicity in albino CF1 mouse assessed as minimal motor impairment at 30 mg/kg, ip after 4 hrs by rotarod test; type: toxicity, organism-based; design: dose 30 mg/kg, route intraperitoneal; settings: in vivo
Mus musculus [9] = assay: Anticonvulsant activity against subcutaneous metrazole-induced seizures in ip dosed albino CF1 mouse assessed as minimum effective dose after 4 hrs; type: functional; settings: albino CF1, 4 h, read-out: MED
Mus musculus [10] = assay: Neurotoxicity in albino CF1 mouse assessed as minimal motor impairment at 100 mg/kg, ip after 0.5 hrs by rotarod test; type: toxicity, organism-based; design: dose 100 mg/kg, route intraperitoneal; settings: in vivo
Mus musculus [11] = assay: Anticonvulsant activity in albino CF1 mouse assessed as protection against subcutaneous metrazole-induced seizures at 300 mg/kg, ip after 0.5 hrs; type: functional, organism-based; design: dose 300 mg/kg
Mus musculus [12] = assay: Neurotoxicity in albino CF1 mouse assessed as minimal motor impairment at 100 mg/kg, ip after 4 hrs by rotarod test; type: toxicity, organism-based; design: dose 100 mg/kg, route intraperitoneal; settings: in vivo
Mus musculus [13] = assay: Neurotoxicity in albino CF1 mouse assessed as minimal motor impairment at 30 to 300 mg/kg, ip after 0.5 hrs by rotarod test; settings: in vivo
Mus musculus [14] = assay: Neurotoxicity in ip dosed albino CF1 mouse assessed as minimum dose required to cause toxicity after 0.5 hrs by rotarod test; type: organism-based; settings: in vivo
Mus musculus [15] = assay: Anticonvulsant activity in albino CF1 mouse assessed as protection against maximal electroshock-induced seizures at 30 mg/kg, ip after 0.5 hrs; type: functional, organism-based; design: dose 30 mg/kg
Mus musculus [16] = assay: Anticonvulsant activity in albino CF1 mouse assessed as protection against maximal electroshock-induced seizures at 300 mg/kg, ip after 0.5 hrs; type: functional, organism-based; design: dose 300 mg/kg
Mus musculus [17] = assay: Anticonvulsant activity against subcutaneous metrazole-induced seizures in ip dosed albino CF1 mouse assessed as minimum effective dose after 0.5 hrs; type: functional; settings: albino CF1, 0.5 h, read-out: MED
Mus musculus [18] = assay: Anticonvulsant activity in albino CF1 mouse assessed as protection against maximal electroshock-induced seizures at 300 mg/kg, ip after 4 hrs; type: functional, organism-based; design: dose 300 mg/kg
Mus musculus [19] = assay: Anticonvulsant activity against maximal electroshock-induced seizures in ip dosed albino CF1 mouse assessed as minimum effective dose after 0.5 hrs; type: functional; settings: read-out: MED
Mus musculus [20] = assay: Anticonvulsant activity in albino CF1 mouse assessed as protection against subcutaneous metrazole-induced seizures at 30 mg/kg, ip after 0.5 hrs; type: functional, organism-based; design: dose 30 mg/kg
Mus musculus [21] = assay: Anticonvulsant activity against maximal electroshock-induced seizures in ip dosed albino CF1 mouse assessed as minimum effective dose after 4 hrs; type: functional; settings: read-out: MED
Mus musculus [22] = assay: Anticonvulsant activity in albino CF1 mouse assessed as protection against subcutaneous metrazole-induced seizures at 30 mg/kg, ip after 4 hrs; type: functional, organism-based; design: dose 30 mg/kg
Mus musculus [23] = assay: Neurotoxicity in albino CF1 mouse assessed as minimal motor impairment at 300 mg/kg, ip after 0.5 hrs by rotarod test; type: toxicity, organism-based; design: dose 300 mg/kg, route intraperitoneal; settings: in vivo
Mus musculus [24] = assay: Anticonvulsant activity in albino CF1 mouse assessed as protection against maximal electroshock-induced seizures at 100 mg/kg, ip after 4 hrs; type: functional, organism-based; design: dose 100 mg/kg
Mus musculus [25] = assay: Neurotoxicity in albino CF1 mouse assessed as minimal motor impairment at 30 to 300 mg/kg, po after 4 hrs by rotarod test; type: toxicity, organism-based; design: dose 30-300 mg/kg, route oral; settings: in vivo
Mus musculus [26] = assay: Anticonvulsant activity in albino CF1 mouse assessed as protection against maximal electroshock-induced seizures at 100 mg/kg, ip after 0.5 hrs; type: functional, organism-based; design: dose 100 mg/kg

Compound	Activity (Mus musculus [2])	Activity (Mus musculus [3])	Activity (Mus musculus [4])	Activity (Mus musculus [5])	Activity (Mus musculus [6])	MED (Mus musculus [7]) [mg/kg]	Activity (Mus musculus [8])	minimal effective dose (Mus musculus [9]) [mg/kg]	Activity (Mus musculus [10])	Activity (Mus musculus [11])	Activity (Mus musculus [12])	Activity (Mus musculus [13])	MED (Mus musculus [14]) [mg/kg]	Activity (Mus musculus [16])	minimal effective dose (Mus musculus [17]) [mg/kg]	minimal effective dose (Mus musculus [19]) [mg/kg]	Activity (Mus musculus [20])	minimal effective dose (Mus musculus [21]) [mg/kg]	Activity (Mus musculus [22])	Activity (Mus musculus [23])	other results
c1ccc(-c2c[nH]c(-c3ccco3)n2)cc1	Toxic	Non-toxic	inactive	inactive	inactive	100	Non-toxic	> 300	Non-toxic	inactive	Non-toxic	Non-toxic	100	Active	> 300	100	inactive	100	inactive	Toxic	Activity (Mus musculus [1]): inactive; Activity (Mus musculus [15]): inactive; Activity (Mus musculus [18]): Active; Activity (Mus musculus [24]): inactive
O=[N+]([O-])c1ccc(-c2nc(-c3ccccc3)c[nH]2)cc1	Non-toxic	Non-toxic	inactive	inactive	inactive	> 300	Non-toxic	100	Non-toxic	inactive	Non-toxic	Non-toxic	> 300	Active	> 300	100	inactive	100	inactive	Non-toxic	Activity (Mus musculus [25]): Non-toxic; Activity (Mus musculus [15]): inactive; Activity (Mus musculus [18]): Active
FC(F)(F)c1cccc(-c2c[nH]c(-c3ccc(Cl)cc3)n2)c1	Non-toxic	Non-toxic	inactive	inactive	inactive	> 300	Non-toxic	> 300	Non-toxic	inactive	Non-toxic	Non-toxic	> 300	inactive	> 300	> 300	inactive	> 300	inactive	Non-toxic	Activity (Mus musculus [1]): inactive; Activity (Mus musculus [25]): Non-toxic; Activity (Mus musculus [15]): inactive; Activity (Mus musculus [26]): inactive; Activity (Mus musculus [18]): inactive; Activity (Mus musculus [24]): inactive
c1ccc(-c2c[nH]c(-c3ccoc3)n2)cc1	Toxic	Non-toxic	inactive	inactive	inactive	> 100	Non-toxic	> 300			Non-toxic	Non-toxic	100	Active	> 300	100	inactive	> 300	inactive	Toxic	Activity (Mus musculus [25]): Non-toxic; Activity (Mus musculus [15]): inactive; Activity (Mus musculus [24]): inactive
FC(F)(F)c1cccc(-c2c[nH]c(-c3cccc(C(F)(F)F)c3)n2)c1	Non-toxic	Non-toxic	inactive	inactive	inactive	> 300	Non-toxic	> 300	Non-toxic	inactive	Non-toxic	Non-toxic	> 300	inactive	> 300	> 300	inactive	100	inactive	Non-toxic	Activity (Mus musculus [1]): inactive; Activity (Mus musculus [25]): Non-toxic; Activity (Mus musculus [26]): inactive; Activity (Mus musculus [18]): Active
O=[N+]([O-])c1ccc(-c2c[nH]c(-c3ccccc3)n2)cc1	Non-toxic	Non-toxic	inactive	inactive	inactive	> 300	Non-toxic	> 300	Non-toxic	inactive	Non-toxic	Non-toxic	> 300	Active	> 300	100	inactive	100	inactive	Non-toxic	Activity (Mus musculus [1]): inactive; Activity (Mus musculus [25]): Non-toxic; Activity (Mus musculus [15]): inactive; Activity (Mus musculus [18]): Active; Activity (Mus musculus [24]): inactive
